Measurements from the NIST ThermoML archive (doi:10.1016/j.jct.2005.01.007).
Where “and” joins values, the source holds several entries; their conditions need not be identical. Identical values can stand only once. ± gives the expanded uncertainty stated by the source.

Tests used:
[1] = 101 kPa, Liquid
[2] = refractive index (Na D-line) (dimensionless); details: 298.15 K; 101.33 kPa; Liquid; Standard Abbe refractometry
[3] = xn = mol fraction of the nth substance listed; details: 101 kPa, Liquid

Work on `c1ccccc1` [benzene] yielded a mass density ([1]; 298.15 K) of 873.62 ± 0.42 kg/m3, a mass density ([1]; 328.15 K) of 841.52 ± 0.48 kg/m3 and a refractive index [2] of 1.4979 ± 0.0007.

With `c1ccccc1` [benzene] + CCC(=O)c1ccccc1 the mass density ([3]; 298.15 K, x1 = 1) was 873.62 ± 0.42 kg/m3 and the mass density ([3]; 328.15 K, x1 = 1) was 841.52 ± 0.48 kg/m3.

`CCCCc1ccccc1` [butylbenzene] showed a mass density ([1]; 298.15 K) of 856.23 ± 0.48 kg/m3, a mass density ([1]; 328.15 K) of 832.29 ± 0.52 kg/m3 and a refractive index [2] of 1.4874 ± 0.0007.

For `CCCCc1ccccc1` [butylbenzene] + CCC(=O)c1ccccc1, the mass density ([3]; 298.15 K, x1 = 1) was 856.23 ± 0.48 kg/m3 and the mass density ([3]; 328.15 K, x1 = 1) was 832.29 ± 0.52 kg/m3.

In the case of `CCC(=O)c1ccccc1` [ethyl phenyl ketone], the mass density ([1]; 298.15 K) is reported as 1005.24 ± 0.22 kg/m3 and 1005.26 ± 0.22 kg/m3 and 1005.29 ± 0.22 kg/m3, the mass density ([1]; 328.15 K) is reported as 979.5 ± 0.24 kg/m3 [middle of 4 runs] and the refractive index [2] is reported as 1.5245 ± 0.0007.

For `CCC(=O)c1ccccc1` [ethyl phenyl ketone] + CCCCc1ccccc1, the mass density ([3]; 298.15 K, x2 = 0) was 1005.29 ± 0.22 kg/m3, the mass density ([3]; 298.15 K, x2 = 0.0906) was 989.98 ± 0.23 kg/m3 and the mass density ([3]; 298.15 K, x2 = 0.1842) was 974.56 ± 0.26 kg/m3. The mass density ([3]; 298.15 K, x2 = 0.2739) was 960.14 ± 0.29 kg/m3, the mass density ([3]; 298.15 K, x2 = 0.3688) was 945.31 ± 0.32 kg/m3 and the mass density ([3]; 298.15 K, x2 = 0.4531) was 932.45 ± 0.34 kg/m3. It also gave a mass density ([3]; 298.15 K, x2 = 0.5519) of 917.76 ± 0.37 kg/m3, a mass density ([3]; 298.15 K, x2 = 0.6164) of 908.4 ± 0.38 kg/m3 and a mass density ([3]; 298.15 K, x2 = 0.711) of 894.97 ± 0.41 kg/m3. The mass density ([3]; 298.15 K, x2 = 0.8053) was 881.97 ± 0.43 kg/m3, the mass density ([3]; 298.15 K, x2 = 0.9044) was 868.69 ± 0.46 kg/m3 and the mass density ([3]; 328.15 K, x2 = 0) was 979.54 ± 0.24 kg/m3. It also gave a mass density ([3]; 328.15 K, x2 = 0.0906) of 964.4 ± 0.27 kg/m3, a mass density ([3]; 328.15 K, x2 = 0.1842) of 949.13 ± 0.3 kg/m3 and a mass density ([3]; 328.15 K, x2 = 0.2739) of 934.89 ± 0.33 kg/m3. For the same compound, the mass density ([3]; 328.15 K, x2 = 0.3688) was 920.21 ± 0.36 kg/m3, the mass density ([3]; 328.15 K, x2 = 0.4531) was 907.51 ± 0.38 kg/m3 and the mass density ([3]; 328.15 K, x2 = 0.5519) was 893 ± 0.41 kg/m3. For the same compound, the mass density ([3]; 328.15 K, x2 = 0.6164) was 883.77 ± 0.43 kg/m3, the mass density ([3]; 328.15 K, x2 = 0.711) was 870.51 ± 0.45 kg/m3 and the mass density ([3]; 328.15 K, x2 = 0.8053) was 857.68 ± 0.48 kg/m3. It also gave a mass density ([3]; 328.15 K, x2 = 0.9044) of 844.57 ± 0.5 kg/m3.

For `CCC(=O)c1ccccc1` [ethyl phenyl ketone] + CCc1ccccc1, the mass density ([3]; 298.15 K, x2 = 0) was 1005.29 ± 0.22 kg/m3, the mass density ([3]; 298.15 K, x2 = 0.1025) was 992.18 ± 0.23 kg/m3 and the mass density ([3]; 298.15 K, x2 = 0.1878) was 981.02 ± 0.24 kg/m3. The mass density ([3]; 298.15 K, x2 = 0.2741) was 969.49 ± 0.26 kg/m3, the mass density ([3]; 298.15 K, x2 = 0.3668) was 956.85 ± 0.29 kg/m3 and the mass density ([3]; 298.15 K, x2 = 0.4491) was 945.37 ± 0.31 kg/m3. It also gave a mass density ([3]; 298.15 K, x2 = 0.5504) of 930.94 ± 0.33 kg/m3, a mass density ([3]; 298.15 K, x2 = 0.6359) of 918.44 ± 0.36 kg/m3 and a mass density ([3]; 298.15 K, x2 = 0.7246) of 905.22 ± 0.38 kg/m3. The mass density ([3]; 298.15 K, x2 = 0.831) was 888.99 ± 0.41 kg/m3, the mass density ([3]; 298.15 K, x2 = 0.9093) was 876.76 ± 0.43 kg/m3 and the mass density ([3]; 328.15 K, x2 = 0) was 979.5 ± 0.24 kg/m3. For the same compound, the mass density ([3]; 328.15 K, x2 = 0.1025) was 966.3 ± 0.27 kg/m3, the mass density ([3]; 328.15 K, x2 = 0.1878) was 955.11 ± 0.29 kg/m3 and the mass density ([3]; 328.15 K, x2 = 0.2741) was 943.55 ± 0.31 kg/m3. For the same compound, the mass density ([3]; 328.15 K, x2 = 0.3668) was 930.84 ± 0.33 kg/m3, the mass density ([3]; 328.15 K, x2 = 0.4491) was 919.32 ± 0.36 kg/m3 and the mass density ([3]; 328.15 K, x2 = 0.5504) was 904.84 ± 0.38 kg/m3. The mass density ([3]; 328.15 K, x2 = 0.6359) was 892.32 ± 0.4 kg/m3, the mass density ([3]; 328.15 K, x2 = 0.7246) was 879.02 ± 0.43 kg/m3 and the mass density ([3]; 328.15 K, x2 = 0.831) was 862.68 ± 0.46 kg/m3. For the same compound, the mass density ([3]; 328.15 K, x2 = 0.9093) was 850.4 ± 0.48 kg/m3.

`CCC(=O)c1ccccc1` [ethyl phenyl ketone] + Cc1ccccc1 showed a mass density ([3]; 298.15 K, x2 = 0) of 1005.26 ± 0.22 kg/m3, a mass density ([3]; 298.15 K, x2 = 0.09253) of 995.05 ± 0.21 kg/m3 and a mass density ([3]; 298.15 K, x2 = 0.1872) of 984.09 ± 0.23 kg/m3. The mass density ([3]; 298.15 K, x2 = 0.2777) was 973.13 ± 0.24 kg/m3, the mass density ([3]; 298.15 K, x2 = 0.3634) was 962.24 ± 0.26 kg/m3 and the mass density ([3]; 298.15 K, x2 = 0.4547) was 950.09 ± 0.28 kg/m3. The mass density ([3]; 298.15 K, x2 = 0.5572) was 935.66 ± 0.31 kg/m3, the mass density ([3]; 298.15 K, x2 = 0.6402) was 923.36 ± 0.33 kg/m3 and the mass density ([3]; 298.15 K, x2 = 0.7203) was 910.9 ± 0.35 kg/m3. The mass density ([3]; 298.15 K, x2 = 0.8278) was 893.2 ± 0.38 kg/m3, the mass density ([3]; 298.15 K, x2 = 0.9099) was 878.86 ± 0.41 kg/m3 and the mass density ([3]; 328.15 K, x2 = 0) was 979.48 ± 0.24 kg/m3. For the same compound, the mass density ([3]; 328.15 K, x2 = 0.09253) was 969.14 ± 0.26 kg/m3, the mass density ([3]; 328.15 K, x2 = 0.1872) was 958.07 ± 0.27 kg/m3 and the mass density ([3]; 328.15 K, x2 = 0.2777) was 946.96 ± 0.29 kg/m3. For the same compound, the mass density ([3]; 328.15 K, x2 = 0.3634) was 935.91 ± 0.31 kg/m3, the mass density ([3]; 328.15 K, x2 = 0.4547) was 923.57 ± 0.33 kg/m3 and the mass density ([3]; 328.15 K, x2 = 0.5572) was 908.94 ± 0.36 kg/m3. It also gave a mass density ([3]; 328.15 K, x2 = 0.6402) of 896.42 ± 0.38 kg/m3, a mass density ([3]; 328.15 K, x2 = 0.7203) of 883.78 ± 0.4 kg/m3 and a mass density ([3]; 328.15 K, x2 = 0.8278) of 865.77 ± 0.44 kg/m3. For the same compound, the mass density ([3]; 328.15 K, x2 = 0.9099) was 851.18 ± 0.46 kg/m3.

Work on `CCC(=O)c1ccccc1` [ethyl phenyl ketone] + c1ccccc1 yielded a mass density ([3]; 298.15 K, x2 = 0) of 1005.24 ± 0.22 kg/m3, a mass density ([3]; 298.15 K, x2 = 0.1079) of 995.49 ± 0.21 kg/m3 and a mass density ([3]; 298.15 K, x2 = 0.1982) of 986.83 ± 0.22 kg/m3. For the same compound, the mass density ([3]; 298.15 K, x2 = 0.2725) was 979.24 ± 0.23 kg/m3, the mass density ([3]; 298.15 K, x2 = 0.3691) was 968.74 ± 0.25 kg/m3 and the mass density ([3]; 298.15 K, x2 = 0.4557) was 958.59 ± 0.27 kg/m3. The mass density ([3]; 298.15 K, x2 = 0.5205) was 950.57 ± 0.28 kg/m3, the mass density ([3]; 298.15 K, x2 = 0.6278) was 936.19 ± 0.3 kg/m3 and the mass density ([3]; 298.15 K, x2 = 0.7441) was 919.01 ± 0.33 kg/m3. It also gave a mass density ([3]; 298.15 K, x2 = 0.8198) of 906.77 ± 0.35 kg/m3, a mass density ([3]; 298.15 K, x2 = 0.8966) of 893.38 ± 0.38 kg/m3 and a mass density ([3]; 328.15 K, x2 = 0) of 979.46 ± 0.24 kg/m3. For the same compound, the mass density ([3]; 328.15 K, x2 = 0.1079) was 969.44 ± 0.26 kg/m3, the mass density ([3]; 328.15 K, x2 = 0.1982) was 960.49 ± 0.27 kg/m3 and the mass density ([3]; 328.15 K, x2 = 0.2725) was 952.7 ± 0.28 kg/m3. The mass density ([3]; 328.15 K, x2 = 0.3691) was 941.82 ± 0.3 kg/m3, the mass density ([3]; 328.15 K, x2 = 0.4557) was 931.35 ± 0.32 kg/m3 and the mass density ([3]; 328.15 K, x2 = 0.5205) was 922.98 ± 0.33 kg/m3. It also gave a mass density ([3]; 328.15 K, x2 = 0.6278) of 907.95 ± 0.36 kg/m3, a mass density ([3]; 328.15 K, x2 = 0.7441) of 889.82 ± 0.39 kg/m3 and a mass density ([3]; 328.15 K, x2 = 0.8198) of 876.8 ± 0.41 kg/m3. The mass density ([3]; 328.15 K, x2 = 0.8966) was 862.6 ± 0.44 kg/m3.

Work on `CCc1ccccc1` [ethylbenzene] yielded a mass density ([1]; 298.15 K) of 862.26 ± 0.46 kg/m3, a mass density ([1]; 328.15 K) of 835.86 ± 0.51 kg/m3 and a refractive index [2] of 1.4931 ± 0.0007.

Work on `CCc1ccccc1` [ethylbenzene] + CCC(=O)c1ccccc1 yielded a mass density ([3]; 298.15 K, x1 = 1) of 862.26 ± 0.46 kg/m3 and a mass density ([3]; 328.15 K, x1 = 1) of 835.86 ± 0.51 kg/m3.

`Cc1ccccc1` [toluene] gave a mass density ([1]; 298.15 K) of 862.25 ± 0.44 kg/m3, a mass density ([1]; 328.15 K) of 834.25 ± 0.5 kg/m3 and a refractive index [2] of 1.4941 ± 0.0007.

Work on `Cc1ccccc1` [toluene] + CCC(=O)c1ccccc1 yielded a mass density ([3]; 298.15 K, x1 = 1) of 862.25 ± 0.44 kg/m3 and a mass density ([3]; 328.15 K, x1 = 1) of 834.25 ± 0.5 kg/m3.
